Among the test systems are RXF 393 renal; OVCAR-5 ovarian; A498 renal; MDA-MB-435; OVCAR-4 ovarian; IGROV1 ovarian; NCI-H522 lung; SF-295 CNS; UACC-257 melanoma; SW-620 colon.
Holding throughout (assay): inhibition of tumour cell growth, NCI panel, 48 h

Molecules are shown by their SMILES.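 In this assay, cells in 96-well plates receive the compound at five concentrations for 48 hours. Endpoints are linearly interpolated between the surrounding concentrations. Here, GI50 denotes the concentration required for 50% inhibition of growth. TGI: concentration producing complete growth inhibition.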

For the compound `CN(C)CC1CCC2=C(C1=O)C(c1ccc(Cl)c(Cl)c1)C1=C(CCC(CN(C)C)C1=O)O2` (stereo not given), the GI50 in the experiment with RXF 393 renal is 9.18 µM; in the experiment with OVCAR-5 ovarian it was 20 µM; with A498 renal, 14.3 µM; with MDA-MB-435, 4.81 µM; with OVCAR-4 ovarian it was 15.4 µM; with IGROV1 ovarian it was 4.54 µM. In addition, the GI50 was 1.81 µM in the experiment with NCI-H522 lung, 16.9 µM in the experiment with SF-295 CNS, 5.14 µM in the experiment on UACC-257 melanoma and 2.47 µM with SW-620 colon. Also, the TGI stood at 22.5 µM in the experiment with RXF 393 renal; 36.6 µM in the experiment on OVCAR-5 ovarian; 27.4 µM in the experiment with A498 renal; 17.5 µM in the experiment on MDA-MB-435; 29.9 µM with OVCAR-4 ovarian; 8.97 µM with IGROV1 ovarian. The TGI in the experiment on NCI-H522 lung amounted to 3.37 µM; in the experiment on SF-295 CNS, 30.5 µM; in the experiment with UACC-257 melanoma, 10.8 µM; in the experiment on SW-620 colon, 16.9 µM.
